# Measured values as given in publication PMC3196665 (Chemical biology & drug design, 2011).
# Like-named read-outs stand apart in the source and are kept apart here.
# What was measured:
# [1] = biological target: EphA4 AP binding to ephrin-A and ephrin-B ligands (Homo sapiens, UniProt P54764); details: ref [37]; cited from earlier work
# EphA4 Fc = EphA4 Fc (Mus musculus, UniProt Q03137); assay: ELISA: inhibition of ephrin-A5 AP binding to immobilized EphA4 Fc
# EphA2 [2] = biological target: T1, EphA2 (Homo sapiens, UniProt P29317); format: cell-based
# [3] = biological target: EphA4 ligand-binding domain (Homo sapiens, UniProt P54764); assay: 1H NMR of compound with increasing EphA4 ligand-binding domain; details: 10 mM phosphate buffer, pH 6.5; unmodified compound
# EphB3 = assay: ELISA: ephrin-B2 AP binding to immobilized EphB3 Fc
# PC3 cells = assay: PC3 cell retraction assay; format: cell-based
# EphA2 [4] = biological target: T1, EphA2; assay: TNFα-induced EphA2 tyrosine phosphorylation in HUVE cells; format: cell-based; details: 20 nM TNFα, 2 hours
# EphA3 = assay: ELISA: ephrin-A5 AP binding to immobilized EphA3 Fc
# EphB2 [5] = assay: ELISA: ephrin-B2 AP binding to immobilized EphB2 Fc
# EphA2 [6] = tested on: EphA2
# EphB6 = assay: ELISA: ephrin-B2 AP binding to immobilized EphB6 Fc
# HUVE cells [7] = assay: MTT assay, HUVE cell viability; format: cell-based; details: 200 μM
# EphA7 = assay: ELISA: ephrin-A5 AP binding to immobilized EphA7 Fc
# [8] = Stability of compound in DMSO, followed by ELISA IC50; format: physicochemical; details: DMSO at ≤ 10 mM, room temperature, after 4 days
# EphB4 = assay: ELISA: ephrin-B2 AP binding to immobilized EphB4 Fc
# EphA6 = assay: ELISA: ephrin-A5 AP binding to immobilized EphA6 Fc
# EphA2 [9] = assay: Ephrin-A1 Fc-induced EphA2 tyrosine phosphorylation in COS cells; format: cell-based
# EphA5 = assay: ELISA: ephrin-A5 AP binding to immobilized EphA5 Fc
# EphA4 = EphA4 (Mus musculus, UniProt Q03137); assay: Ephrin-induced EphA4 tyrosine phosphorylation in HT22 neuronal cells; format: cell-based; details: ephrin-A5 Fc
# EphB1 = assay: ELISA: ephrin-B2 AP binding to immobilized EphB1 Fc
# EphB2 [10] = assay: Ephrin-B2 Fc-induced EphB2 tyrosine phosphorylation in COS cells; format: cell-based
# HUVE cells [11] = assay: Capillary-like tube formation of HUVECs on Matrigel; format: cell-based; details: 18 hours
# Eph receptors = details: ref [36]; cited from earlier work
# T1 sequence (P29317 24-976): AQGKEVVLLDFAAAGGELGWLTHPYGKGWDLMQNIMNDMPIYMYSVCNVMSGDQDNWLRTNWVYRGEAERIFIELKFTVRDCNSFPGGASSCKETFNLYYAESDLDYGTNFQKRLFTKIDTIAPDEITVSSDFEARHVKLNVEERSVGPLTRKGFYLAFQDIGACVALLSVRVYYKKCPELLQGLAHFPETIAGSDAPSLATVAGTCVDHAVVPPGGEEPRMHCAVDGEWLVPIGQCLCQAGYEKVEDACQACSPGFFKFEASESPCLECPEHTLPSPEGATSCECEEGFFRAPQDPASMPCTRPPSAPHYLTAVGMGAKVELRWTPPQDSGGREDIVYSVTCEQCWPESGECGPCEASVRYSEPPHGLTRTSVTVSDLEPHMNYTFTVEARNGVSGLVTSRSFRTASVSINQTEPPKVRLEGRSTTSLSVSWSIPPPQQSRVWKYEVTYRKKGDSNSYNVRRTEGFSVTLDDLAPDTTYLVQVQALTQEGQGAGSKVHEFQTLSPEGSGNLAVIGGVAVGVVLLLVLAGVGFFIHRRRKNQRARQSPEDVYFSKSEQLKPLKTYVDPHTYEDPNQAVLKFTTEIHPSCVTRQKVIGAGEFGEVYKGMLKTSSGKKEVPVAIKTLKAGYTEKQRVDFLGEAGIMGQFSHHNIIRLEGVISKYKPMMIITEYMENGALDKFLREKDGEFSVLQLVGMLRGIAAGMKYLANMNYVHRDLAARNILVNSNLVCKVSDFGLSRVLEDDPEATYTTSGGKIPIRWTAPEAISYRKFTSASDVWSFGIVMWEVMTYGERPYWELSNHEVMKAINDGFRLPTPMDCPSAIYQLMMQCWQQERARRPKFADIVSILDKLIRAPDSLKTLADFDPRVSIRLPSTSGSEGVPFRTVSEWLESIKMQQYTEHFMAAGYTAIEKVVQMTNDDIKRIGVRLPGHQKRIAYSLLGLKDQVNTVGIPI
# Sequence of EphA4 Fc (Q03137 20-547): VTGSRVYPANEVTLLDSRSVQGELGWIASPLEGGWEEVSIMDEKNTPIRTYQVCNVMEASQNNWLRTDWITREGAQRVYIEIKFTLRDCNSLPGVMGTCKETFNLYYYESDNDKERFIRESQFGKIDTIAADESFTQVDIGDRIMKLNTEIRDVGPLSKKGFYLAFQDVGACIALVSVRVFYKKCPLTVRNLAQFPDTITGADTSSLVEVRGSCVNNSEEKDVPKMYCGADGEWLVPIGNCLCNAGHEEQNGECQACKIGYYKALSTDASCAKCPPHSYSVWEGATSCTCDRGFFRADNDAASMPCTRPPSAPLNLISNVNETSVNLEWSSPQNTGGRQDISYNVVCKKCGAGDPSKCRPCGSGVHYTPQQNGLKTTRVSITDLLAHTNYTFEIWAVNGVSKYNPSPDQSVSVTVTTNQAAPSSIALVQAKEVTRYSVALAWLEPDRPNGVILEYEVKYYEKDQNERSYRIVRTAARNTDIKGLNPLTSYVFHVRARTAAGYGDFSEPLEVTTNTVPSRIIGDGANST
# Sequence of EphA4 AP binding to ephrin-A and ephrin-B ligands (P54764 30-209 limits assumed): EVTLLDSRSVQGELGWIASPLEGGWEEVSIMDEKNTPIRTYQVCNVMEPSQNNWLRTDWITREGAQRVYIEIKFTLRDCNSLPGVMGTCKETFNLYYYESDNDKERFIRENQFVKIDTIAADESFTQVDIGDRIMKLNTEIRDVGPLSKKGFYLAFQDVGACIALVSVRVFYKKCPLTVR
# Sequence of EphA4 ligand-binding domain (P54764 28-208): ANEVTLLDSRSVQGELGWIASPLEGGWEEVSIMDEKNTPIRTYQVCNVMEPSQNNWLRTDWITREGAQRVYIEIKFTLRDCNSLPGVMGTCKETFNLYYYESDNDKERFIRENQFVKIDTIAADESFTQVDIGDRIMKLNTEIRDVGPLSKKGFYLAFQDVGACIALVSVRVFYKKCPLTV
# Sequence of EphA4 (Q03137 20-986): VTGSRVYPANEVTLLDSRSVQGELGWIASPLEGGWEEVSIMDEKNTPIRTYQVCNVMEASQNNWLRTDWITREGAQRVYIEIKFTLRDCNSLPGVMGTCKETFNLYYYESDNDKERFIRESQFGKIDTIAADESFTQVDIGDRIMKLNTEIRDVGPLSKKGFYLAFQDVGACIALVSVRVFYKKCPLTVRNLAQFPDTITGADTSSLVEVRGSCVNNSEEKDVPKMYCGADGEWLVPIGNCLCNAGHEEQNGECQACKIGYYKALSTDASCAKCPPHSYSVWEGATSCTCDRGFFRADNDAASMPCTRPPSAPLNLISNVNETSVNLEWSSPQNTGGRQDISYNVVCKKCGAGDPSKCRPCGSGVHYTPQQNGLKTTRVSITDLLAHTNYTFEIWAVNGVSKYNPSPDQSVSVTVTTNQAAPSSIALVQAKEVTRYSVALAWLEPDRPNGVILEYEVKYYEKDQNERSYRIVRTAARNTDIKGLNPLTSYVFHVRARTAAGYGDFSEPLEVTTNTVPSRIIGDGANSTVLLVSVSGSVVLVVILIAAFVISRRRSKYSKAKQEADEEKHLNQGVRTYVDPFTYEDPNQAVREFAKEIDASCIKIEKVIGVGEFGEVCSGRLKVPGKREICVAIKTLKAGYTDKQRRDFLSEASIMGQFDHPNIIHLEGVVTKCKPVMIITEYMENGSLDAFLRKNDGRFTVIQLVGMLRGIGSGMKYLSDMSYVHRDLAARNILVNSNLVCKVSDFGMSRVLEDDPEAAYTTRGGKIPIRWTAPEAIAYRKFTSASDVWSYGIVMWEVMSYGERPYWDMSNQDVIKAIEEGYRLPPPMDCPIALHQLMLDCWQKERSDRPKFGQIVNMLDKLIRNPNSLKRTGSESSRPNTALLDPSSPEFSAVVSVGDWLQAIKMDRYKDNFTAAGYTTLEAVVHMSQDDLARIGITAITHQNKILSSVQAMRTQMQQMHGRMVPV
compound,measurement,setting,value
"Cc1ccc(C)n1-c1ccc(C(=O)O)c(O)c1 [Compound 1, reference compound]",Inhibition of EphA4 AP binding to ephrin-A4 and ephrin-B2,[1],do not efficiently inhibit
same,Change of activity in ephrin-A5-EphA4 ELISA on storage,EphA4 Fc; dry form exposed to air at room temperature,becomes progressively more active
same,Inhibition of ephrin-A5 AP binding to EphA4 Fc,EphA4 Fc; newly synthesized preparation,did not show detectable inhibition
same,Inhibition of ephrin-A5 AP binding to EphA4 Fc,EphA4 Fc; purchased preparation,activity comparable to that previously reported
same,Inhibition of EphA2 phosphorylation in cells stimulated with ephrin-A1 Fc,"EphA2 [2]; newly synthesized preparation, PC3 cells",did not show detectable inhibition
same,Inhibition of EphA2 phosphorylation in cells stimulated with ephrin-A1 Fc,"EphA2 [2]; purchased preparation, PC3 cells",activity comparable to that previously reported
same,Binding to EphA4 (resonance peak shifts of compound protons),[3],"some, albeit weak, ability to bind to EphA4"
Cc1ccc(C)n1-c1ccc(O)c(C(=O)O)c1 [Compound 2],Inhibition of EphA4 AP binding to ephrin-A4 and ephrin-B2,[1],do not efficiently inhibit
"COC(=O)/C=C/c1ccc(-c2ccc(O)c(C(=O)OC)c2)o1 [Compound 76A5, (E)-methyl 2-hydroxy-5-(5-(3-methoxy-3-oxoprop-1-en-1-yl)furan-2-yl)benzoate]",Inhibitory activity on ephrin-A5 AP binding to EphA4 Fc,EphA4 Fc,did not show detectable inhibitory activity
"O=Cc1ccc(-c2ccc(O)c(C(=O)O)c2)o1 [Compound 76B8, 5-(5-formylfuran-2-yl)-2-hydroxybenzoic acid]",Inhibitory activity on ephrin-A5 AP binding to EphA4 Fc,EphA4 Fc,did not show detectable inhibitory activity
O=C(/C=C/c1ccc(-c2ccc(O)c(C(=O)O)c2)o1)/C=C/c1ccc(-c2ccc(O)c(C(=O)O)c2)o1 [Compound 76D10],Inhibition of ephrin binding to EphB3,EphB3,much lower to undetectable inhibitory activity
same,Effect on cell morphology in the absence of ephrin,PC3 cells,does not affect cell morphology
same,Reversal of the effect of ephrin-A1 on cell area,PC3 cells; 25 μM,partially
same,Reversal of the effect of ephrin-A1 on cell area,PC3 cells; 50 μM,partially
same,Reversal of the effect of ephrin-A1 on cell area,PC3 cells; 100 μM,reverted completely
same,Inhibition of ephrin-A1 Fc-induced cell retraction,PC3 cells; concentrations between 25 and 100 μM,significantly counteracts these effects
same,Inhibition of EphA2 tyrosine phosphorylation in response to TNFα,EphA2 [4],inhibits EphA2 tyrosine phosphorylation
same,Inhibition of ephrin binding to EphA3,EphA3,much lower to undetectable inhibitory activity
same,Inhibition of ephrin binding to EphB2,EphB2 [5],much lower to undetectable inhibitory activity
same,Selectivity among EphA and EphB receptors examined,EphA2 [6],preferentially inhibits
same,Inhibition of ephrin-B2 binding to EphB6,EphB6,inhibits with substantial potency
same,HUVE cell viability (MTT),HUVE cells [7]; three days,minimally affected
same,HUVE cell viability (MTT),HUVE cells [7]; up to one day,not affected
same,Inhibition of ephrin-A5 binding to EphA7,EphA7,inhibits with substantial potency
same,Increase in IC50 values on storage in DMSO,[8],10 fold
same,Selectivity among EphA and EphB receptors examined,EphA4 Fc,preferentially inhibits
same,Time to binding equilibrium after addition of ephrin-A5 AP with compound,EphA4 Fc,≤ 3 h
same,Inhibitory activity in the presence of BSA,EphA4 Fc; 0.1 mg/ml BSA,lost
same,Inhibitory activity in the presence of collagen,EphA4 Fc; 0.1 mg/ml collagen,not affected
same,Reversibility of binding to EphA4 in ELISA,"EphA4 Fc; 3 hour incubation, wash, 24 hours in binding buffer",does not appear to be reversible
same,Mode of inhibition (Bmax and KD of ephrin-A5 AP binding curves),EphA4 Fc; increasing 76D10 concentrations,consistent with competitive inhibition
same,Inhibition of ephrin-B2 binding to EphB4,EphB4,inhibits with substantial potency
same,Inhibition of ephrin-A5 binding to EphA6,EphA6,inhibits with substantial potency
same,Inhibition of EphA2 tyrosine phosphorylation,EphA2 [9],inhibits tyrosine phosphorylation
same,Effect of BSA in culture medium on compound activity,"EphA2 [2]; 0.1 mg/mL BSA, COS and PC3 cells",inhibited the activity
same,Inhibition of EphA2 tyrosine phosphorylation,"EphA2 [2]; PC3 cells, ephrin-A1 Fc",inhibits tyrosine phosphorylation
same,Inhibition of ephrin-A5 binding to EphA5,EphA5,inhibits with substantial potency
same,Inhibition of EphA4 tyrosine phosphorylation,EphA4,inhibits EphA4 tyrosine phosphorylation
same,Inhibition of ephrin binding to EphB1,EphB1,much lower to undetectable inhibitory activity
same,Inhibition of EphB2 tyrosine phosphorylation,EphB2 [10],not EphB2 tyrosine phosphorylation
same,Inhibition of capillary-like tube formation,HUVE cells [11],inhibits capillary-like tube formation
C[C@H](CCC(=O)O)[C@H]1CC[C@H]2[C@@H]3CC[C@@H]4C[C@H](O)CC[C@]4(C)[C@H]3CC[C@]12C [lithocholic acid],Inhibition of Eph receptors,Eph receptors,inhibit with similar low potency all Eph receptors examined
